The values below come from ChEMBL document CHEMBL2346571 (Bioorg Med Chem, 2013).

The target of one assay is Cannabinoid receptor 2 (Homo sapiens, UniProt P34972). The assay can be described thus: Displacement of [3H]-CP55940 from human CB2 receptor after 90 mins by liquid scintillation spectrophotometer analysis. Background: Loss of bound radioactivity is the signal in a displacement assay; it reports binding, not function.
For assay [1], the system named is Rattus norvegicus. Kind of assay: Antiobesity activity in Wistar rat assessed as reduction of food intake at 3 mg/kg, ip after 30 to 240 mins. The format is functional, organism-based. Details: dose 3 mg/kg.
The target in a further assay is Cannabinoid receptor 1 (Homo sapiens, UniProt P21554). The assay can be described thus: Displacement of [3H]-CP55940 from human CB1 receptor after 90 mins by liquid scintillation spectrophotometer analysis.
Assay [2] has as its system Rattus norvegicus. Kind of assay: Increase of food intake in Wistar rat at 3 mg/kg, ip after 30 to 240 mins. Details: dose 3 mg/kg. The format is functional, organism-based.
For assay [3], the system named is Rattus norvegicus. The assay can be described thus: Antiobesity activity in Wistar rat assessed as reduction of food intake at 3 mg/kg, ip after 30 mins. Details: dose 3 mg/kg. The format is functional, organism-based.
Assay [4] relates to Rattus norvegicus. The assay can be described thus: Antiobesity activity in Wistar rat assessed as reduction of food intake at 3 mg/kg, ip after 60 to 240 mins. Details: dose 3 mg/kg. The format is functional, organism-based.
In assay [5] the test system is Rattus norvegicus. Kind of assay: Antiobesity activity in Wistar rat assessed as reduction of food intake at 3 mg/kg, ip. Details: dose 3 mg/kg. The format is functional, organism-based.

Activity calls are given as the source filed them. The rule behind the calls is not given here.

Chain of Cannabinoid receptor 2 (P34972 whole entry): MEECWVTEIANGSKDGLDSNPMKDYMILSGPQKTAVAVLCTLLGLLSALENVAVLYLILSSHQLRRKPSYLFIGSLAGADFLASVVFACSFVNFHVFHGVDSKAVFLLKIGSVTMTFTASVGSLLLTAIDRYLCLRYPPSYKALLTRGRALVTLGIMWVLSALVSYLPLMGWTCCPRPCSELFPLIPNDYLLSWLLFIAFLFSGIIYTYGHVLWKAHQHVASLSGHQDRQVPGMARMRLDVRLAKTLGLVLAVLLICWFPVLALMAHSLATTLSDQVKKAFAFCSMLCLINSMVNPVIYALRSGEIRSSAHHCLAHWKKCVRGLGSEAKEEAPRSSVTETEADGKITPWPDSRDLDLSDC
Chain of Cannabinoid receptor 1 (P21554 whole entry): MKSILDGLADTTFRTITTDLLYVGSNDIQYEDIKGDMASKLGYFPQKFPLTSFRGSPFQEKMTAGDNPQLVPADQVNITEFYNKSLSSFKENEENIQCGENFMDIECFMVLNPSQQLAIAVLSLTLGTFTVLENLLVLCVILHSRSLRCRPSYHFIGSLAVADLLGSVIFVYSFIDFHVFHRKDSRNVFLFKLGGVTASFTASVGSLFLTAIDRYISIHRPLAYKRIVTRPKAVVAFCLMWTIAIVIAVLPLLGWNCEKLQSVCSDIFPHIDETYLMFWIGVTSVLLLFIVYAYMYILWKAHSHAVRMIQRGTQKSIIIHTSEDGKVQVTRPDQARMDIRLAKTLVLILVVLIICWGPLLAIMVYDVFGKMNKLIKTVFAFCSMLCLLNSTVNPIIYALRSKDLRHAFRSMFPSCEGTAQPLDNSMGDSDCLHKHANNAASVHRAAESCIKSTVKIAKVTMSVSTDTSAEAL

In general, Ki refers to the equilibrium dissociation constant of an inhibitor or competing ligand from its target. The low end stands for a stronger hold on the target, the high end for a looser hold on the target. Take `CCCCCCCC/C=C\CCCCCCCCNC(=O)c1cc(-c2ccccc2)n(-c2ccccc2)n1`: the Ki at Cannabinoid receptor 2 and at Cannabinoid receptor 1 was > 40 µM in each case. Also, the result in the assay with Rattus norvegicus [1] was inactive.
Turning to `CCCCCCCCCCCCCCCCNC(=O)c1nn(-c2ccccc2)c(-c2ccccc2)c1C`, the Ki at Cannabinoid receptor 2 and on Cannabinoid receptor 1 was > 10 µM each time. In the assay on Rattus norvegicus [1], the outcome was Active.
With `Cc1c(C(=O)NN2CCCCC2)nn(-c2ccccc2)c1-c1ccccc1`, the Ki was 18.2 µM on Cannabinoid receptor 2 and 9.69 µM on Cannabinoid receptor 1. The outcome in the assay with Rattus norvegicus [2] was Active.
For `CCCCCCCC/C=C\CCCCCCCCNC(=O)c1nn(-c2ccccc2)c(-c2ccccc2)c1C`, the inhibitory constant (Ki) at Cannabinoid receptor 2 and on Cannabinoid receptor 1 was > 40 µM each time. Moreover, in the assay on Rattus norvegicus [1], the outcome was inactive.
Take `CCCCCCCCCCCCCCCCNC(=O)c1nc(-c2ccc(Cl)cc2)n(-c2ccc(Cl)cc2)n1`: the Ki at Cannabinoid receptor 2 and on Cannabinoid receptor 1 was > 10 µM throughout. In addition, the outcome in the assay on Rattus norvegicus [1] was Active.
Turning to `O=C(NN1CCCCC1)c1cc(-c2ccccc2)n(-c2ccccc2)n1`, the inhibition constant Ki on Cannabinoid receptor 2 was found to be 27.9 µM; on Cannabinoid receptor 1, 4.59 µM. Moreover, the outcome in the assay on Rattus norvegicus [3] was inactive. In addition, the outcome with Rattus norvegicus [4] was Active.
On to `CCCCCCCCCCCCCCCCNC(=O)c1cc(-c2ccccc2)n(-c2ccccc2)n1`, for which the Ki on Cannabinoid receptor 2 was > 10 µM; at Cannabinoid receptor 1, > 40 µM. The result with Rattus norvegicus [1] was Active.
Consider `CCCCCCc1nc(-c2ccc(Cl)cc2)n(-c2ccc(Cl)cc2Cl)n1`, for which the Ki at Cannabinoid receptor 2 came to 3.08 µM; at Cannabinoid receptor 1 it was 0.829 µM.
For `CCCCCc1cc(-c2ccccc2)n(-c2ccccc2)n1` the same measures were 2.94 µM and 6.16 µM.
For `CCCCCc1cc(-c2ccc(Cl)cc2)n(-c2ccc(Cl)cc2Cl)n1`, the result in the assay with Rattus norvegicus [5] was Active. In addition, the inhibition constant Ki on Cannabinoid receptor 2 was 0.458 µM; on Cannabinoid receptor 1, > 40 µM.
Take `CCCCCCc1cc(-c2ccc(Cl)cc2)n(-c2ccc(Cl)cc2Cl)n1`: the Ki on Cannabinoid receptor 2 and at Cannabinoid receptor 1 was > 40 µM each time.
Take `CCCCCCCC/C=C\CCCCCCCCNC(=O)c1nc(-c2ccc(Cl)cc2)n(-c2ccc(Cl)cc2)n1`: the Ki at Cannabinoid receptor 2 and at Cannabinoid receptor 1 was > 40 µM in each case. For the same compound, the result with Rattus norvegicus [1] was inactive.
